Measured values as given in US20130131161A1, “METHODS AND COMPOSITIONS FOR CARDIOVASCULAR DISEASES AND CONDITIONS” (priority 2009, published 2013).

Test system: eNOS
Experiment: eNOS protein abundance in HUVECs by immunochemical methods (Example 2)
Type: cell-based, human
Details: for Fold difference eNOS protein abundance (mean ± sd): (LA-419 5 μM)/(control); for eNOS protein abundance Fold difference (mean ± sd): LA-419 5 μM / control; for eNOS protein abundance Net increase (mean ± sd): avg 5 μM LA-419 − avg Cntl
From the text: eNOS Activity and Protein Abundance Measurements
Using immunochemical methods, there was no change in any condition in relation to eNOS protein abundance, Tables ss-L1.

For `CC(=O)SC1COC2C(O[N+](=O)[O-])COC12` (stereo not drawn) [LA-419, S-(6-Nitro-oxi-hexahydro-furo[3,2-b]furan-3-1-il)thioacetate], the “Fold difference eNOS protein abundance (mean ± sd)” value (Intron 4 b/a, a/a, c/c, n=14) was 1.00 (0.09), the “Fold difference eNOS protein abundance (mean ± sd)” value (Intron 4 b/a, n=10) was 1.01 (0.10) and the “Fold difference eNOS protein abundance (mean ± sd)” value (Intron 4 b/b, b/a, c/c, n=42) was 0.99 (0.08). For the same compound, the “Fold difference eNOS protein abundance (mean ± sd)” value (Intron 4 b/b, n=31) was 0.98 (0.07), the “Fold difference eNOS protein abundance (mean ± sd)” value (Intron 4 c/c, n=1) was 0.94 (0) and the “Fold difference eNOS protein abundance (mean ± sd)” value (T786C T/T & T/C, n=45) was 0.99 (0.08). For the same compound, the “Fold difference eNOS protein abundance (mean ± sd)” value (T-786C C/C, n=4) was 0.93 (0.06), the “Fold difference eNOS protein abundance (mean ± sd)” value (T-786C T/C & C/C, n=27) was 0.99 (0.09) and the “Fold difference eNOS protein abundance (mean ± sd)” value (T-786C T/C, n=23) was 1.00 (0.09). For the same compound, the “Fold difference eNOS protein abundance (mean ± sd)” value (T-786C T/T, n=22) was 0.99 (0.06), the “eNOS protein abundance Fold difference (mean ± sd)” value (Caucasian, G894T + T-786C variant G/G + T/C (n=3), Table K) was 1.10 (0.05) and the “eNOS protein abundance Fold difference (mean ± sd)” value (Caucasian, G894T + T-786C variant G/G + T/T (n=7), reference group, Table K) was 1.04 (0.04). The “eNOS protein abundance Fold difference (mean ± sd)” value (Caucasian, G894T + T-786C variant G/T + T/C (n=10), Table K) was 1.00 (0.08), the “eNOS protein abundance Fold difference (mean ± sd)” value (Caucasian, G894T + T-786C variant G/T + T/T (n=3), Table K) was 1.02 (0.09) and the “eNOS protein abundance Fold difference (mean ± sd)” value (Caucasian, G894T + T-786C variant T/T + T/C (n=2), Table K) was 1.04 (0.01). The “eNOS protein abundance Fold difference (mean ± sd)” value (Caucasian, G894T variant G/G (n=10), major allele homozygotes, Table J) was 1.06 (0.05), the “eNOS protein abundance Fold difference (mean ± sd)” value (Caucasian, G894T variant G/G (n=10), Table I) was 1.06 (0.05) and the “eNOS protein abundance Fold difference (mean ± sd)” value (Caucasian, G894T variant G/T & T/T (n=16), minor allele carriers, Table J) was 1.01 (0.07). For the same compound, the “eNOS protein abundance Fold difference (mean ± sd)” value (Caucasian, G894T variant G/T (n=13), Table I) was 1.00 (0.08), the “eNOS protein abundance Fold difference (mean ± sd)” value (Caucasian, G894T variant T/T (n=3), Table I) was 1.03 (0.02) and the “eNOS protein abundance Fold difference (mean ± sd)” value (Caucasian, Genotype Combination = all minor allele carriers (n=19), Table L) was 1.02 (0.08). For the same compound, the “eNOS protein abundance Fold difference (mean ± sd)” value (Caucasian, Genotype Reference = G/G + T/T (n=7), Table L) was 1.04 (0.04), the “eNOS protein abundance Fold difference (mean ± sd)” value (Caucasian, Intron 4 variant b/a & a/a (n=6), minor allele carriers, Table J) was 1.08 (0.06) and the “eNOS protein abundance Fold difference (mean ± sd)” value (Caucasian, Intron 4 variant b/a (n=5), Table I) was 1.07 (0.06). The “eNOS protein abundance Fold difference (mean ± sd)” value (Caucasian, Intron 4 variant b/b (n=18), major allele homozygotes, Table J) was 1.00 (0.06), the “eNOS protein abundance Fold difference (mean ± sd)” value (Caucasian, Intron 4 variant b/b (n=18), Table I) was 1.00 (0.06) and the “eNOS protein abundance Fold difference (mean ± sd)” value (Caucasian, T-786C variant T/C & C/C (n=16), minor allele carriers, Table J) was 1.02 (0.08). The “eNOS protein abundance Fold difference (mean ± sd)” value (Caucasian, T-786C variant T/C (n=15), Table I) was 1.02 (0.08), the “eNOS protein abundance Fold difference (mean ± sd)” value (Caucasian, T-786C variant T/T (n=10), major allele homozygotes, Table J) was 1.03 (0.06) and the “eNOS protein abundance Fold difference (mean ± sd)” value (Caucasian, T-786C variant T/T (n=10), Table I) was 1.03 (0.06). For the same compound, the “eNOS protein abundance Fold difference (mean ± sd)” value (G894T + T-786C variant T/T + C/C (n=1), Table K) was 1.01 (0), the “eNOS protein abundance Fold difference (mean ± sd)” value (Intron 4 variant a/a (n=1), Table I) was 1.14 (0) and the “eNOS protein abundance Fold difference (mean ± sd)” value (T-786C variant C/C (n=1), Table I) was 1.01 (0). For the same compound, the eNOS protein abundance (any condition, Tables ss-L1) was “no change”, the “eNOS protein abundance Net increase (mean ± sd)” value (Combination of all G894T + T786C genotypes but G/G + T/T, n=31) was −0.12 (0.53) pg/ug and the “eNOS protein abundance Net increase (mean ± sd)” value (G894T + T786C G/G + T/C, n=8) was −0.17 (0.77) pg/ug. The “eNOS protein abundance Net increase (mean ± sd)” value (G894T + T786C G/G + T/T, n=18) was −0.09 (0.35) pg/ug, the “eNOS protein abundance Net increase (mean ± sd)” value (G894T + T786C G/T + C/C, n=1) was −0.99 (0) pg/ug and the “eNOS protein abundance Net increase (mean ± sd)” value (G894T + T786C G/T + T/C, n=13) was −0.03 (0.42) pg/ug. For the same compound, the “eNOS protein abundance Net increase (mean ± sd)” value (G894T + T786C G/T + T/T, n=4) was −0.03 (0.46) pg/ug, the “eNOS protein abundance Net increase (mean ± sd)” value (G894T + T786C T/T + C/C, n=3) was −0.41 (0.46) pg/ug and the “eNOS protein abundance Net increase (mean ± sd)” value (G894T + T786C T/T + T/C, n=2) was 0.17 (0.02) pg/ug. The “eNOS protein abundance Net increase (mean ± sd)” value (G894T G/G, n=26) was −0.12 (0.50) pg/ug, the “eNOS protein abundance Net increase (mean ± sd)” value (G894T G/T & T/T, n=23) was −0.10 (0.45) pg/ug and the “eNOS protein abundance Net increase (mean ± sd)” value (G894T G/T, n=18) was −0.08 (0.46) pg/ug. For the same compound, the “eNOS protein abundance Net increase (mean ± sd)” value (G894T T/T, n=5) was −0.18 (0.45) pg/ug, the “eNOS protein abundance Net increase (mean ± sd)” value (Intron 4 a/a, n=3) was −0.05 (0.69) pg/ug and the “eNOS protein abundance Net increase (mean ± sd)” value (Intron 4 b/a, a/a, c/c, n=14) was −0.05 (0.55) pg/ug. The “eNOS protein abundance Net increase (mean ± sd)” value (Intron 4 b/a, n=10) was −0.02 (0.56) pg/ug, the “eNOS protein abundance Net increase (mean ± sd)” value (Intron 4 b/b, n=31) was −0.14 (0.45) pg/ug and the “eNOS protein abundance Net increase (mean ± sd)” value (Intron 4 c/c, n=1) was −0.44 (0) pg/ug. For the same compound, the “eNOS protein abundance Net increase (mean ± sd)” value (T786C C/C, n=4) was −0.55 (0.47) pg/ug, the “eNOS protein abundance Net increase (mean ± sd)” value (T786C T/C & C/C, n=27) was −0.13 (0.55) pg/ug and the “eNOS protein abundance Net increase (mean ± sd)” value (T786C T/C, n=23) was −0.06 (0.54) pg/ug. For the same compound, the “eNOS protein abundance Net increase (mean ± sd)” value (T786C T/T, n=22) was −0.08 (0.36) pg/ug.
